The values below come from PMC4822888, “Subtype-Selective Small Molecule Inhibitors Reveal a Fundamental Role for Nav1.7 in Nociceptor Electrogenesis, Axonal Conduction and Presynaptic Release” (PLoS ONE, 2016).

Test in all cases: Off target activity panel
Experiment [1] has as its system Calcium channel L-type (diltiazem site). It counts as binding. The conditions noted are these: 10 µM.
Experiment [2] has as its target Cannabinoid receptor 2 (Homo sapiens, UniProt P34972). It is filed as binding. Particulars: read-out: Inhibition at test concentration (%).
In experiment [3] the target is Dopamine D2 receptor (Homo sapiens, UniProt P14416). It counts as binding. The conditions noted are these: read-out: Inhibition at test concentration (%).
Chain of Dopamine D2 receptor (P14416 whole entry): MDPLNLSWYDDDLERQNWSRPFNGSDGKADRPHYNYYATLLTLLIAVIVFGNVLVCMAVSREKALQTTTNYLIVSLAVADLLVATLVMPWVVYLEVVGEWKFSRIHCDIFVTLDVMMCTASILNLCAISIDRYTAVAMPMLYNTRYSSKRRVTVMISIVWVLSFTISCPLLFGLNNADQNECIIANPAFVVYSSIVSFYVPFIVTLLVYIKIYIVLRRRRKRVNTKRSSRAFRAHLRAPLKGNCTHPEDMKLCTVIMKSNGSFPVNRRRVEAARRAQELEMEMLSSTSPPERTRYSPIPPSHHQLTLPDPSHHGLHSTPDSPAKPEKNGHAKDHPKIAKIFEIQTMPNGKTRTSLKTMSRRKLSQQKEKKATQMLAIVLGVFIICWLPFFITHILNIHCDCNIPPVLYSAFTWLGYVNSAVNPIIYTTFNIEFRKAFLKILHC
The target in experiment [4] is Norepinephrine transporter (Homo sapiens, UniProt P23975). It is filed as binding. Particulars: read-out: Inhibition at test concentration (%).
Chain of Norepinephrine transporter (P23975 whole entry): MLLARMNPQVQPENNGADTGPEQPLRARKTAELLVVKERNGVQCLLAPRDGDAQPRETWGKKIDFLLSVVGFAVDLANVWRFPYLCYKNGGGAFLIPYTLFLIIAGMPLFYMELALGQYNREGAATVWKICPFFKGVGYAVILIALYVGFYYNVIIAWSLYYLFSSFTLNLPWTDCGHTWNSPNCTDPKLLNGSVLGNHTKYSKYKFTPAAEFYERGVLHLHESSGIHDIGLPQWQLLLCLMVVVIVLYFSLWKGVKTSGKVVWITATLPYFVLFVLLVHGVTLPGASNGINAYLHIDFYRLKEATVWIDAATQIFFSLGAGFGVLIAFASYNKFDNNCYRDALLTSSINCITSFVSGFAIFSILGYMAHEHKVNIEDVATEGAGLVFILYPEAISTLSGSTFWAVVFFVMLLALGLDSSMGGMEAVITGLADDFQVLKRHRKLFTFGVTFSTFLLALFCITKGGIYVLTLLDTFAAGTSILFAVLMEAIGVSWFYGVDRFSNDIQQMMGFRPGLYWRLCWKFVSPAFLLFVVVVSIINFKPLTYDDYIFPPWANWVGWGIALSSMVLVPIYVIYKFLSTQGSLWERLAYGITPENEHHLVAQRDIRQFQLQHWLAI
For experiment [5], the target named is PDE5 (Homo sapiens, UniProt O76074). It counts as biochemical. Particulars: read-out: Inhibition at test concentration (%).

By Inhibition is commonly meant how much of the control response was suppressed.

Chain of Cannabinoid receptor 2 (P34972 whole entry): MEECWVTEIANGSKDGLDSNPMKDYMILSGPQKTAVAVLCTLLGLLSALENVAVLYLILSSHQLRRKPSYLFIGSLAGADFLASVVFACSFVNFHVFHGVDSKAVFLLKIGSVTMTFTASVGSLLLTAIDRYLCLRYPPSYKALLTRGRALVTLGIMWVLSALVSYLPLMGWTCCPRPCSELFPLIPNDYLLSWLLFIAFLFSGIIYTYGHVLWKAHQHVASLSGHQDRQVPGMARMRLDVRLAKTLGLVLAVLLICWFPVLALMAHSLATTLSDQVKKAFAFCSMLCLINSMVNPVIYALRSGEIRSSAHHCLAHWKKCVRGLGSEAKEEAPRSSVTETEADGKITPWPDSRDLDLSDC

Turning to `Nc1[nH]ncc1-c1cc(Cl)ccc1Oc1cc(F)c(S(=O)(=O)Nc2cscn2)cc1Cl` [PF-05089771, 4-[2-(5-amino-1H-pyrazol-4-yl)-4-chlorophenoxy]-5-chloro-2-fluoro-N-(1,3-thiazol-4-yl)benzenesulfonamide], the “Inhibition at test concentration (%)” value in experiment [1] is 16%. Also, the inhibition at 10 µM in experiment [2] was -5%; in experiment [3], 10%; in experiment [4], 27%; in experiment [5] it was 7%.
